Legend:
[1] = molecular target: T1, Human immunodeficiency virus type 1 protease (Human immunodeficiency virus 1, UniProt Q72874); experiment: Inhibitory activity was determined against HIV-1 protease.
[2] = molecular target: Human immunodeficiency virus type 1 protease (Human immunodeficiency virus 1) (UniProt Q72874); experiment: Concentration that inhibits cellular growth of MT-4 cells acutely infected with HIV-1 RFstrain by 50%; format: functional, cell-based; settings: MT4
[3] = Cytotoxic activity was determined against HIV-1 infected MT-4 cells.; format: functional, cell-based; settings: MT4
C8166 [4] = experiment: Antiviral activity against HIV-2red in C8166 cell line; format: functional; settings: Homo sapiens, read-out: ED50 (the source's name)
C8166 [5] = experiment: Antiviral activity against SIV-mac251 in C8166 cell line; format: functional; settings: Homo sapiens, read-out: ED50 (the source's name)
C8166 [6] = experiment: Cytotoxic activity against HIV-1 RF in […] cell line; format: functional; settings: Homo sapiens, read-out: CD50 (the source's name)
C8166 [7] = experiment: Antiviral activity against HIV-1 RF in […] cell line; format: functional; settings: Homo sapiens, read-out: ED50 (the source's name)
CCRF-CEM = experiment: Antiviral activity against HIV-1 HIB in CEM cell line; format: functional; settings: Homo sapiens, read-out: ED50 (the source's name)
H9 [8] = experiment: Antiviral activity against HIV-1HIB in H9 cell line; format: functional; settings: Homo sapiens, read-out: ED50 (the source's name)
H9 [9] = experiment: Antiviral activity against HIV-1MN in H9 cell line; format: functional; settings: Homo sapiens, read-out: ED50 (the source's name)
H938 cell line = experiment: Antiviral activity against HIV-1CCl protease in H938 cell line; format: functional; settings: Homo sapiens, read-out: ED50 (the source's name)
[10] = molecular target: T1, Human immunodeficiency virus type 1 protease; experiment: Inhibitory activity against HIV-1 protease
JM1 [11] = experiment: Antiviral activity against HIV-1 QB8F in JM cell line; format: functional; settings: Homo sapiens, read-out: ED50 (the source's name)
MT4 [12] = experiment: Antiviral activity against HIV-1 RF in MT-4 cell line; format: functional; settings: Homo sapiens, read-out: ED50 (the source's name)
MT4 [13] = experiment: Cytotoxic activity against HIV-1 in MT-4 cell line; format: functional; settings: Homo sapiens, read-out: CD50 (the source's name)
[14] = test system: Human immunodeficiency virus 1; experiment: Antiviral activity against HIV-1 108/F in PBMC 3 cell line; format: functional; settings: Human immunodeficiency virus 1, PBMC; read-out: ED50 (the source's name)
[15] = test system: Human immunodeficiency virus 1; experiment: Antiviral activity against HIV-1CC in PBMC cell line; Out of 7 days; format: functional; settings: Human immunodeficiency virus 1, PBMC, 168 h; read-out: ED50 (the source's name)
[16] = test system: Human immunodeficiency virus 1; experiment: Antiviral activity against HIV-1CCl in PBMC cell line; Out of 21 days; format: functional; settings: Human immunodeficiency virus 1, PBMC, 504 h; read-out: ED50 (the source's name)
[17] = test system: Human immunodeficiency virus 1; experiment: Antiviral activity against HIV-1CCL in PBMC 2 cell line; Out of 14 days; format: functional; settings: Human immunodeficiency virus 1, PBMC, 336 h; read-out: ED50 (the source's name)
H9 [18] = experiment: Antiviral activity against HIV-1U455 in H9 cell line; format: functional; settings: Homo sapiens, read-out: ED50 (the source's name)
JM1 [19] = experiment: Cytotoxic activity against HIV-1QB8F in JM cell line; format: functional; settings: Homo sapiens, read-out: CD50 (the source's name)

Compound | IC50 [1] [µM] | ED50 [2] [µM] | CD50 [3] [µM] | other results
CC(C)[C@H](NC(=O)OCc1ccccc1)C(=O)NC(Cc1ccc(OCc2ccccc2)cc1)C(=O)C(F)(F)C(=O)N[C@@H](COCc1ccccc1)c1ccccc1 (stereo not given in full) | 0.001 | 0.09 | 23 | 
CC(C)[C@H](CCc1ccccc1)NC(=O)C(F)(F)C(=O)C(Cc1ccc(OCc2ccccc2)cc1)NC(=O)[C@@H](NC(=O)OCc1ccccc1)C(C)C (stereo not given in full) | 0.013 | 0.24 | 35 | 
CC(C)C(C=O)NC(=O)C(F)(F)C(=O)C(Cc1ccc(OCc2ccccc2)cc1)NC(=O)[C@@H](NC(=O)OCc1ccccc1)C(C)C (stereo not given in full) | 0.004 | 0.018 | 3.2 | 
CC(C)[C@H](COCc1ccccc1)NC(=O)C(F)(F)[C@@H](O)C(Cc1ccc(OCc2ccccc2)cc1)NC(=O)[C@@H](NC(=O)OCc1ccccc1)C(C)C (stereo not given in full) | 0.0066 | > 100 | > 100 | 
COC(=O)[C@H](NC(=O)C(F)(F)C(=O)C(Cc1ccc(OCc2ccccc2)cc1)NC(=O)[C@@H](NC(=O)OCc1ccccc1)C(C)C)C(C)C (stereo not given in full) | < 0.01 | 0.022 | 2.6 | 
COCCOCO[C@H](NC(=O)C(F)(F)C(=O)C(Cc1ccc(OCc2ccccc2)cc1)NC(=O)[C@@H](NC(=O)OCc1ccccc1)C(C)C)C(C)C (stereo not given in full) | < 0.01 | 0.015 | 3.4 | 
CC(C)C[C@H](COCc1ccccc1)NC(=O)C(F)(F)C(=O)C(Cc1ccc(OCc2ccccc2)cc1)NC(=O)[C@@H](NC(=O)OCc1ccccc1)C(C)C (stereo not given in full) | 0.0018 | 0.2 | 15 | 
CC(C)[C@H](NC(=O)OCc1ccccc1)C(=O)NC(Cc1ccc(OCc2ccccc2)cc1)C(=O)C(F)(F)C(=O)N[C@@H](C(=O)O)C(C)C (stereo not given in full) | 0.004 | 50 | > 100 | 
CC(C)[C@H](COCc1ccccc1)NC(=O)C(F)(F)[C@H](O)C(Cc1ccc(OCc2ccccc2)cc1)NC(=O)[C@@H](NC(=O)OCc1ccccc1)C(C)C (stereo not given in full) | 0.005 | > 100 | > 100 | 
CC(C)CNC(=O)C(F)(F)C(=O)C(Cc1ccc(OCc2ccccc2)cc1)NC(=O)[C@@H](NC(=O)OCc1ccccc1)C(C)C (stereo not given in full) | 0.005 | > 44 | 44 | 
CC(C)[C@H](NC(=O)OCc1ccccc1)C(=O)NC(Cc1ccc(OCc2ccccc2)cc1)C(=O)C(F)(F)C(=O)N[C@@H](C(=O)OC(C)(C)C)C(C)C (stereo not given in full) | 0.006 | 0.24 | 6 | 
CC(C)[C@H](COCc1ccccc1)NC(=O)C(F)(F)C(=O)C(Cc1ccc(OCc2ccccc2)cc1)NC(=O)[C@H](NC(=O)OCc1ccccc1)C(C)C (stereo not given in full) | 0.06 | > 95 | 95 | 
COCCOCCO[C@H](NC(=O)C(F)(F)C(=O)C(Cc1ccc(OCc2ccccc2)cc1)NC(=O)[C@@H](NC(=O)OCc1ccccc1)C(C)C)C(C)C (stereo not given in full) | < 0.015 | 0.045 | 2.8 | 
CC(C)[C@H](COCc1ccccc1)NC(=O)C(F)(F)C(=O)C(Cc1ccc(OCc2ccccc2)cc1)NC(=O)[C@@H](NC(=O)OCc1ccccc1)C(C)C (stereo not given in full) |  | 0.027 | 100 | EC50 (C8166 [4]): 0.033 µM; EC50 (C8166 [5]): 0.028 µM; CC50 (C8166 [6]): 25 µM; EC50 (C8166 [7]): 0.009 µM; EC50 (CCRF-CEM): 0.03 µM; EC50 (H9 [8]): 0.009 µM; EC50 (H9 [9]): 0.012 µM; EC50 (H938 cell line): 0.049 µM; Ki [10]: 0.008 µM; EC50 (JM1 [11]): 0.016 µM; EC50 (MT4 [12]): 0.027 µM; CC50 (MT4 [13]): 25 µM; EC50 [14]: 0.035 µM; EC50 [15]: 0.08 µM; EC50 [16]: 0.07 µM; EC50 [17]: 0.038 µM; EC50 (H9 [18]): 0.035 µM; CC50 (JM1 [19]): > 100 µM
CC(C)[C@@H](COCc1ccccc1)NC(=O)C(F)(F)C(=O)C(Cc1ccc(OCc2ccccc2)cc1)NC(=O)[C@H](NC(=O)OCc1ccccc1)C(C)C (stereo not given in full) | 2 |  |  | 
CC(C)(C)NC(=O)[C@@H]1C[C@@H]2CCCC[C@@H]2CN1C[C@@H](O)[C@H](Cc1ccccc1)NC(=O)[C@H](CC(N)=O)NC(=O)c1ccc2ccccc2n1 |  | 0.006 | > 10 | 
CC(C)[C@H](NC(=O)OCc1ccccc1)C(=O)NC(Cc1ccc(OCc2ccccc2)cc1)C(=O)C(F)(F)C(=O)N[C@H](COCc1ccccc1)C(C)C (stereo not given in full) | 0.04 | 0.35 | 35 | 
CC(C)[C@H](NC(=O)OCc1ccccc1)C(=O)NC(Cc1ccc(OCc2ccccc2)cc1)C(=O)C(F)(F)C(=O)NCc1ccccc1 (stereo not given in full) |  | 0.3 | > 100 | 
CC(C)NC(=O)C(F)(F)C(=O)C(Cc1ccc(OCc2ccccc2)cc1)NC(=O)[C@@H](NC(=O)OCc1ccccc1)C(C)C (stereo not given in full) | 0.005 | 0.32 | 6 | 
Cc1cn([C@H]2C[C@H](N=[N+]=[N-])[C@@H](CO)O2)c(=O)[nH]c1=O |  | 0.06 | > 10 | 
CO[C@H](NC(=O)C(F)(F)C(=O)C(Cc1ccc(OCc2ccccc2)cc1)NC(=O)[C@@H](NC(=O)OCc1ccccc1)C(C)C)C(C)C (stereo not given in full) | < 0.01 | < 0.01 | 8 | 

— ChEMBL document CHEMBL1127883, “Increased antiviral activity of HIV protease inhibitors of the difluorostatone type bearing (R)-valinol derivatives as novel c-termini” (Bioorg Med Chem Lett, 1994)
